Starred links: 1 amine or outer side, 2 acyl side, 3 side chain; linkers in the order of their positions; H or OH if unused. Non-standard residues stand in square brackets, D forms with d. Residues, ends and D or L forms follow the SMILES beside them. ξ: configuration not given here. *: point of attachment. ξ(3-Amino-2-oxopentanoyl) = CCC(N[*:1])C(=O)C(=O)[*:2]; Acetyl(3-pyridyl) = O=C(Cc1cccnc1)*; X41 = CCC(N*)C(=O)c1nc2ccccc2o1; NH(4-picolyl) = c1cc(CN*)ccn1; Hyp = O=C(O)[CH]1C[CH](O)CN1; NHPhenethyl = c1ccc(CCN*)cc1; Nicotinoyl = O=C(c1cccnc1)*; X44 = O=C(c1ccc2cnccc2n1)*; Morpholide = C1CN(*)CCO1; Abu = CC[CH](N)C(=O)O; X8 = O=C(CCN1CCCCC1)*; NHBn = c1ccc(CN*)cc1; Glycolyl = O=C(CO)*; X13 = COc1ccccc1CN*; X16 = C1COC(CN*)C1; Bn = c1ccc(C*)cc1; X37 = COCC(C)N*; NHPr = CCCN*

For orientation: Ki means a dissociation constant, usually derived from enzyme kinetics or from competition with a known ligand.

The target in the first assay is T1, HCV NS3 protease (Hepatitis C virus genotype 1a, UniProt P27958).
T1 construct: more particularly HCV NS3 proteases
T1 sequence (P27958 1027-1208): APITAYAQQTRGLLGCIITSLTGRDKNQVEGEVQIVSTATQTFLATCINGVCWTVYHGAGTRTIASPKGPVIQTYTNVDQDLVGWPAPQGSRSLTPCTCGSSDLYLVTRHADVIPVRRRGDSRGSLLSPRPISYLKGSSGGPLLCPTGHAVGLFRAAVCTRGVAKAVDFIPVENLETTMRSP
In words: Enzyme inhibition of HCV NS3 serine protease (cleavage of peptide substrate / EDVV AbuC-p-nitroanilide, with or without NS4A). In kind it is biochemical.
Details: not given
On the procedure: Cleavage reactions were quenched by the addition of an equal volume of a mixture of 10% TFA:acetonitrile (1:1) and activity was assessed on a reversed phase HPLC column (Rainin C18 Microsorb-MV, […], 4.6×250 mm; 0-50% acetonitrile, 0.1% TFA@ 3.33% min) using a Hewlett Packard 1050 instrument with auto-injection and diode array detection at 210 nm and 280 nm (where appropriate). Peptide elution fragments were collected and identified by mass spectrometry and N-terminal sequence analysis. Fragment identity and concentration was further verified by authentic, synthesized products. Initial rates of cleavage were determined at <20% substrate conversion and catalytic parameters were determined assuming Michaelis-Menten kinetics using the MultiFit program (Day Computing, Cambridge, Mass.).
Spectrophotometric assays were run in a 96-well microtiter plate at 30 C, using a SpectraMax 250 reader (Molecular Devices, Sunnyvale, Calif.) with kinetic capability. Cleavage of EDVV AbuC-p-nitroanilide (5A-pNA) substrate was performed with or without […] in the same buffer used for HPLC assays at 30 C, and pNA release was monitored at 405 nm. The extinction-coefficient of p-nitroaniline is independent of pH at values of 5.5. and above [Tuppy, H., et al., Hoppe-Seyler's Z. Physiol. Chem., 329, pp. 278-288 (1962)]; Raybuck and Luong, unpublished observations).
Kinetic constants for the rapid equilibrium ordered bisubstrate reaction were determined from rate vs [4A], [EDVV AbuC-pNA] data by non-linear least squares fitting to equation 1 [Morrison, J. F. Biochim. Biophys. Acta, 185, pp. 269-286 (1969)] as described in the text. Kii and Kis values for peptidyl inhibitors were determined from rate vs [inhibitor], [substrate] data and fitting to the equation for mixed inhibition: rate=Vmax[S]/{Km(1+[I]/Kis)+[S](1+[I]/Kii)} The commercial program KinetAsyst (StateCollege, Pa.) was used for both procedures. Ki values were calculated from rate vs [inhibitor] plots by a nonlinear least squares fit of the data to the equation of Morrison for tight binding competitive inhibition [Morrison, J. F. Biochim. Biophys. Acta, 185, pp. 269-286 (1969)]. The KineTic program (BioKin Ltd) was used for this procedure.
Ki values are expressed in μM. Category “A” indicates <1 μM inhibition; category “B” indicates 1-100 μM inhibition; category “C” indicates >100 μM.
In the case of `CCC(NC(=O)C1CC(OCc2ccc(Cl)c(Cl)c2)CN1C(=O)C(NC(=O)C(NC(=O)c1cnccn1)C(C)C)C(C)C)P(=O)(Oc1ccccc1)Oc1ccccc1` (centres unmarked) [Compound 71], the Ki is < 1000 nM.

Compound `CCC(NC(=O)C1CC(OCc2ccc3ccccc3c2)CN1C(=O)C(NC(=O)C(NC(=O)c1cnccn1)C(C)C)C(C)C)P(=O)(Oc1ccccc1)Oc1ccccc1` (centres unmarked) [Compound 72] registered an inhibition constant (Ki) of 1000 to 100000 nM.

For `CCC(NC(=O)C1CC(OCc2ccccc2)CN1C(=O)C(NC(=O)C(NC(=O)c1cnccn1)C(C)C)C(C)C)P(=O)(Oc1ccccc1)Oc1ccccc1` (centres unmarked) [Compound 73], the Ki lay within 1000 to 100000 nM.

The compound `CCC(NC(=O)C(CC(C)C)NC(=O)C(NC(=O)C(NC(=O)c1cnccn1)C(C)C)C(C)C)C(=O)C(=O)N[C@H](CC)c1ccccc1` (some centres unmarked) [Compound 120] gave an inhibition constant Ki of 1000 to 100000 nM.

For `CCC(NC(=O)C(CC(C)C)NC(=O)C(NC(=O)C(NC(=O)c1cnccn1)C(C)C)C(C)C)C(=O)C(=O)N[C@@H](CC)c1ccccc1` (some centres unmarked) [Compound 121], the Ki is > 100000 nM.

Still in this assay, the particulars now being: Enzyme inhibition data; Ki from rate vs [inhibitor] plots, Morrison tight binding competitive inhibition fit; 30 C, pH 7.8; read-out: Ki.
As to `CCC(NC(=O)C1CC(OCc2ccccc2)CN1C(=O)C(NC(=O)C(NC(=O)c1cnccn1)C(C)C)C(C)C)C(=O)C(F)(F)C(F)(F)F` (centres unmarked) [Compound 75], the Ki was 1000 to 100000 nM.

Take `CCOC(=O)C(F)(F)C(=O)C(CC)NC(=O)C1CC(OCc2ccccc2)CN1C(=O)C(NC(=O)C(NC(=O)c1cnccn1)C(C)C)C(C)C` (centres unmarked) [Compound 76]: the inhibition constant (Ki) was > 100000 nM.

Turning to `CCOP(=O)(OCC)C(CC)NC(=O)C1CC(OCc2ccccc2)CN1C(=O)C(NC(=O)C(NC(=O)c1cnccn1)C(C)C)C(C)C` (centres unmarked) [Compound 77], the Ki was > 100000 nM.

On to `CCC(NC(=O)C1CC(OCc2ccccc2)CN1C(=O)C(NC(=O)C(NC(=O)c1cnccn1)C(C)C)C(C)C)C(=O)C(=O)CCc1ccccc1` (centres unmarked) [Compound 78], for which the inhibition constant (Ki) is 1000 to 100000 nM.

As for `CCC(NC(=O)C1CC(OCc2ccccc2)CN1C(=O)C(NC(=O)C(NC(=O)c1cnccn1)C(C)C)C(C)C)C(=O)C(=O)NCCc1ccccc1` (centres unmarked) [Compound 79], the Ki lay within 1000 to 100000 nM.

For the compound `CCC(C=O)NC(=O)C1CC(OCc2ccccc2)CN1C(=O)C(NC(=O)C(NC(C)=O)C(C)C)C(C)C` (centres unmarked) [Compound 81] (Ac-VV[Hyp](Bn)[Abu]-aldehyde; configuration not given here), the Ki was in the range of 1000 to 100000 nM.

With `CCC(C=O)NC(=O)C1CC(OCc2ccccc2)CN1C(=O)C(NC(=O)C(NC(=O)CO)C(C)C)C(C)C` (centres unmarked) [Compound 82] (Glycolyl-VV[Hyp](Bn)[Abu]-aldehyde; configuration not given here), the inhibitory constant (Ki) was in the range of 1000 to 100000 nM.

As to `CCC(C=O)NC(=O)C(CC(C)C)NC(=O)C(NC(=O)C(NC(=O)c1ccc2cnccc2n1)C(C)C)C(C)C` (centres unmarked) [Compound 89] (X44-VVL[Abu]-aldehyde; configuration not given here), the Ki lay in the range of 1000 to 100000 nM.

On to `CCC(C=O)NC(=O)C(CC(C)C)NC(=O)C(NC(=O)C(NC(=O)c1cccnc1)C(C)C)C(C)C` (centres unmarked) [Compound 94] (Nicotinoyl-VVL[Abu]-aldehyde; configuration not given here), for which the Ki was in the range of 1000 to 100000 nM.

As to `CCC(C=O)NC(=O)C(CC(C)C)NC(=O)C(NC(=O)C(NC(=O)Cc1cccnc1)C(C)C)C(C)C` (centres unmarked) [Compound 95] ({Acetyl(3-pyridyl)}-VVL[Abu]-aldehyde; configuration not given here), the inhibition constant (Ki) lay in the range of 1000 to 100000 nM.

On to `CCC(C=O)NC(=O)C(CC(C)C)NC(=O)C(NC(=O)C(NC(=O)CCN1CCCCC1)C(C)C)C(C)C` (centres unmarked) [Compound 97] (X8-VVL[Abu]-aldehyde; configuration not given here), for which the inhibition constant Ki is 1000 to 100000 nM.

Turning to `CCC(NC(=O)C(CC(C)C)NC(=O)C(NC(=O)C(NC(=O)C(CC(=O)O)NC(=O)C(CCC(=O)O)NC(C)=O)C(C)C)C(C)C)C(=O)C(=O)O` (centres unmarked) [Compound 101] (Ac-EDVVL-{ξ(3-Amino-2-oxopentanoyl)}; configuration not given here), the Ki is < 1000 nM.

In the case of `CCC(NC(=O)C(CC(C)C)NC(=O)C(NC(=O)C(NC(=O)C(CC(=O)O)NC(=O)C(CCC(=O)O)NC(C)=O)C(C)C)C(C)C)C(=O)C(=O)NCc1ccccc1` (centres unmarked) [Compound 102] (Ac-EDVVL[ξ(3-Amino-2-oxopentanoyl)]-NHBn; configuration not given here), the Ki is < 1000 nM.

Take `CCC(NC(=O)C(CC(C)C)NC(=O)C(NC(=O)C(NC(=O)C(CC(=O)O)NC(=O)C(CCC(=O)O)NC(C)=O)C(C)C)C(C)C)C(=O)C(=O)NCc1ccccc1OC` (centres unmarked) [Compound 103] (Ac-EDVVL[ξ(3-Amino-2-oxopentanoyl)]-X13; configuration not given here): the inhibitory constant (Ki) was < 1000 nM.

Consider `CCC(NC(=O)C(CC(C)C)NC(=O)C(NC(=O)C(NC(=O)C(CC(=O)O)NC(=O)C(CCC(=O)O)NC(C)=O)C(C)C)C(C)C)C(=O)C(=O)NCCc1ccccc1` (centres unmarked) [Compound 104] (Ac-EDVVL[ξ(3-Amino-2-oxopentanoyl)]-NHPhenethyl; configuration not given here), for which the Ki is < 1000 nM.

`CCCNC(=O)C(=O)C(CC)NC(=O)C(CC(C)C)NC(=O)C(NC(=O)C(NC(=O)C(CC(=O)O)NC(=O)C(CCC(=O)O)NC(C)=O)C(C)C)C(C)C` (centres unmarked) [Compound 105] (Ac-EDVVL[ξ(3-Amino-2-oxopentanoyl)]-NHPr; configuration not given here): the Ki is < 1000 nM.

Regarding `CCC(NC(=O)C(CC(C)C)NC(=O)C(NC(=O)C(NC(=O)C(CC(=O)O)NC(=O)C(CCC(=O)O)NC(C)=O)C(C)C)C(C)C)C(=O)C(=O)NC(C)COC` (centres unmarked) [Compound 106] (Ac-EDVVL[ξ(3-Amino-2-oxopentanoyl)]-X37; configuration not given here), the inhibitory constant (Ki) was < 1000 nM.

Regarding `CCC(NC(=O)C(CC(C)C)NC(=O)C(NC(=O)C(NC(=O)C(CC(=O)O)NC(=O)C(CCC(=O)O)NC(C)=O)C(C)C)C(C)C)C(=O)C(=O)NCc1ccncc1` (centres unmarked) [Compound 107] (Ac-EDVVL[ξ(3-Amino-2-oxopentanoyl)]-{NH(4-picolyl)}; configuration not given here), the inhibitory constant (Ki) was < 1000 nM.

As to `CCC(NC(=O)C(CC(C)C)NC(=O)C(NC(=O)C(NC(=O)C(CC(=O)O)NC(=O)C(CCC(=O)O)NC(C)=O)C(C)C)C(C)C)C(=O)C(=O)NCC1CCCO1` (centres unmarked) [Compound 108] (Ac-EDVVL[ξ(3-Amino-2-oxopentanoyl)]-X16; configuration not given here), the inhibition constant Ki is < 1000 nM.

With `CCC(NC(=O)C(CC(C)C)NC(=O)C(NC(=O)C(NC(=O)C(CC(=O)O)NC(=O)C(CCC(=O)O)NC(C)=O)C(C)C)C(C)C)C(=O)C(=O)N1CCOCC1` (centres unmarked) [Compound 109] (Ac-EDVVL[ξ(3-Amino-2-oxopentanoyl)]-Morpholide; configuration not given here), the Ki lay within 1000 to 100000 nM.

On to `CCC(NC(=O)C(CC(C)C)NC(=O)C(NC(=O)C(NC(=O)c1cnccn1)C(C)C)C(C)C)C(=O)C(=O)NCc1ccccc1` (centres unmarked) [Compound 112], for which the inhibitory constant (Ki) lay in the range of 1000 to 100000 nM.

Regarding `CCC(NC(=O)C(CC(C)C)NC(=O)C(NC(=O)C(NC(=O)c1cnccn1)C(C)C)C(C)C)C(=O)C(=O)NCCc1ccc(OCc2ccccc2)c(OCc2ccccc2)c1` (centres unmarked) [Compound 113], the inhibitory constant (Ki) lay within 1000 to 100000 nM.

On to `CCC(NC(=O)C(CC(C)C)NC(=O)C(NC(=O)C(NC(=O)c1cnccn1)C(C)C)C(C)C)C(=O)C(=O)NCc1ccccc1OC` (centres unmarked) [Compound 114], for which the inhibitory constant (Ki) is > 100000 nM.

Turning to `CCC(NC(=O)C(CC(C)C)NC(=O)C(NC(=O)C(NC(=O)c1cnccn1)C(C)C)C(C)C)C(=O)C(=O)NCCc1ccccc1` (centres unmarked) [Compound 115], the inhibitory constant (Ki) fell in the range of 1000 to 100000 nM.

For the compound `CCC(NC(=O)C(CC(C)C)NC(=O)C(NC(=O)C(NC(=O)c1cnccn1)C(C)C)C(C)C)C(=O)C(=O)N[C@H](C)c1ccccc1` (some centres unmarked) [Compound 116], the inhibitory constant (Ki) was 1000 to 100000 nM.

For `CCC(NC(=O)C(CC(C)C)NC(=O)C(NC(=O)C(NC(=O)c1cnccn1)C(C)C)C(C)C)C(=O)C(=O)N[C@@H](C)c1ccccc1` (some centres unmarked) [Compound 117], the inhibitory constant (Ki) fell in the range of 1000 to 100000 nM.

Regarding `CCC(NC(=O)C(CC(C)C)NC(=O)C(NC(=O)C(NC(=O)c1cnccn1)C(C)C)C(C)C)C(=O)C(=O)Nc1ccccc1` (centres unmarked) [Compound 119], the inhibition constant Ki was > 100000 nM.

Regarding `CCC(NC(=O)C(CC(C)C)NC(=O)C(NC(=O)C(NC(=O)c1cnccn1)C(C)C)C(C)C)C(=O)C(=O)N(CC)CC` (centres unmarked) [Compound 122], the inhibition constant (Ki) is > 100000 nM.

On to `CCC(NC(=O)C(CC(C)C)NC(=O)C(NC(=O)C(NC(=O)c1cnccn1)C(C)C)C(C)C)C(=O)C(=O)NCC(C)OC` (centres unmarked) [Compound 123], for which the inhibition constant Ki lay in the range of 1000 to 100000 nM.

For the compound `CCC(NC(=O)C(CC(C)C)NC(=O)C(NC(=O)C(NC(=O)C(CC(=O)O)NC(=O)C(N)CCC(=O)O)C(C)C)C(C)C)C(=O)c1nc2ccccc2o1` (centres unmarked) [Compound 124] (H-EDVVL-X41; configuration not given here), the Ki is 1000 to 100000 nM.

The values above are taken from patent US7388017B2, “Inhibitors of serine proteases, particularly hepatitis C virus NS3 protease” (Vertex Pharmaceuticals Incorporated, priority 1996, dated 2008).
